Reference: patent US20260201008A1, “SECRETIN-DERIVED GLP1R SELECTIVE AGONISTS” (GUBRA A/S, priority 2023, published 2026)
Like-named read-outs stand apart in the source and are kept apart here. Numbered stars: 1 amine (or outer) side, 2 acyl side, 3 side chain; on linkers, the order of the positions; unused ones are H or OH. Square brackets hold non-standard residues; d marks the D form. Side chains are listed from the residue outwards. Peptide text beside a SMILES is read from it. * marks the point of attachment. C20 diacid = O=C(O)CCCCCCCCCCCCCCCCCCC(=O)*; γGlu = O=C(O)[C@H](CCC(=O)[*:2])N[*:1]; AEEA = NCCOCCOCC(=O)O; Aib = CC(C)(N)C(=O)O

How the values were obtained:
[1] = Fibril formation of crude library peptides (Thioflavin T); assay type: physicochemical; parameters: key: average ThT fluorescence emission at 480 nm (ex 450 nm), raw units; conditions: Physical stability of peptides
In short: (§1)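 Values reflect mean ThT emission (ex 450, em 480 nm) over 72 h at 40° C, read every 10 min after 5 min shaking at 700 rpm, plus a single initial absorbance at 600 nm for turbidity. Peptides were at 267 μM, pH 4.0 acetate or pH 7.0 phosphate (50 mM), with 4 μM ThT.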

GLP1R = GLP1R (Homo sapiens, UniProt P43220); assay: hGLP1R potency, cAMP accumulation in CHO-K1 cells stably overexpressing hGLP1R; assay type: cell-based; parameters: host or cells: CHO-K1; conditions: for EC50: cAMP accumulation; for SCTR EC50/GLP1R EC50 ratio: cAMP accumulation in CHO-K1 cells; for Selectivity: SCTR EC50/GLP1R EC50 ratio
GLP1R, sequence (P43220 24-463): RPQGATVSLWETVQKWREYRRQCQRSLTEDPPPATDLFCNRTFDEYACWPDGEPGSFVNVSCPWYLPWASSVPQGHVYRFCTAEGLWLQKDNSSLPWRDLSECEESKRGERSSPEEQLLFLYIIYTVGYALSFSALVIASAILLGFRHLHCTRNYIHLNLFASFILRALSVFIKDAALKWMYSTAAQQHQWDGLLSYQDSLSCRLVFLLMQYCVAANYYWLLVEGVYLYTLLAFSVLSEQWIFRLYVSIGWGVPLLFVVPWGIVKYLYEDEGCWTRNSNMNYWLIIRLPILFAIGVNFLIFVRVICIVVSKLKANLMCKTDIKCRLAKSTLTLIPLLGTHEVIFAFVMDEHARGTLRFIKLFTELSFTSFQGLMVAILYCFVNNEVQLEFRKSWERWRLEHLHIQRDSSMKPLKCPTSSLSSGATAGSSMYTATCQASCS
In short: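 Potency reflects cAMP accumulation measured by time-resolved fluorescence energy transfer after a 30 min room-temperature stimulation in IBMX-containing (0.5 mM) DPBS with casein. Purified peptides were tested in duplicate over eleven threefold dilutions, and EC50 was obtained from sigmoid concentration-response fitting.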

[2] = Turbidity of crude library peptides (absorbance at 600 nm); assay type: physicochemical; conditions: Physical stability of peptides
In short: as §1

SCTR = SCTR (Homo sapiens, UniProt P47872); assay: hSCTR potency, cAMP accumulation in CHO-K1 cells stably overexpressing hSCTR; assay type: cell-based; parameters: alternatively Euroscreen ES-712-AF; FAST-0161L; host or cells: CHO-K1; conditions: cAMP accumulation
SCTR, sequence (P47872 23-440): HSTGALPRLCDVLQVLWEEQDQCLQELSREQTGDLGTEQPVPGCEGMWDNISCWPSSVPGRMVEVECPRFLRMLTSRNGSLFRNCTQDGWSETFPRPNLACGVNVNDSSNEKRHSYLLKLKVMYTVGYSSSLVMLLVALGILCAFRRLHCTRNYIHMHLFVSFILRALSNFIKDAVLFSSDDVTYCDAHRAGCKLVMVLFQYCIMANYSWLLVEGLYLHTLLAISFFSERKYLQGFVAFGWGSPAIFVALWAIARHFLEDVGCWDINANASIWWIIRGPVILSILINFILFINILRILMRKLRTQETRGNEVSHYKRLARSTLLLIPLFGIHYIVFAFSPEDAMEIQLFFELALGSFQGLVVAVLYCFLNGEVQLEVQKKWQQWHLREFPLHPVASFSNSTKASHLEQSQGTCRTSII
In short: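 Potency reflects cAMP accumulation after 30 min agonist exposure at room temperature in hSCTR-expressing CHO-K1 cells, with 0.5 mM IBMX present to block phosphodiesterase. EC50 was derived by nonlinear regression.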

[3] = CHO-K1 cells stably overexpressing hGLP1R, read-out: hGLP1R potency (pEC50) (converted)
[4] = selectivity ratio, hSCTR vs hGLP1R
[5] = CHO-K1 cells stably overexpressing hSCTR, read-out: hSCTR potency (pEC50) (converted)
[6] = CHO-K1 cells overexpressing hGLP1R, read-out: hGLP1R pEC50 (converted)
[7] = selectivity for hGLP1R over hSCTR
[8] = CHO-K1 cells overexpressing hSCTR, read-out: hSCTR pEC50 (converted)
[9] = CHO-K1 cells overexpressing hGLP1R, read-out: pEC50 hGLPR1 (converted)
[10] = CHO-K1 cells overexpressing hSCTR, read-out: pEC50 hSCTR (converted)

Row | SMILES | Fibril formation [1] | EC50 (GLP1R; [3]) [nM] | SCTR EC50/GLP1R EC50 ratio (GLP1R; [4]) | Turbidity (pH 7) [2] | EC50 (SCTR; [5]) [nM] | EC50 (GLP1R; [6]) [nM] | SCTR EC50/GLP1R EC50 ratio (GLP1R; [7]) | EC50 (SCTR; [8]) [nM] | Selectivity (GLP1R) | EC50 (GLP1R; [9]) [nM] | EC50 (SCTR; [10]) [nM]
1 | CC[C@H](C)[C@H](NC(=O)[C@H](Cc1ccccc1)NC(=O)[C@H](CCCNC(=N)N)NC(=O)[C@H](CCC(N)=O)NC(=O)[C@H](CC(C)C)NC(=O)[C@H](C)NC(=O)[C@H](C)NC(=O)CNC(=O)[C@H](CCC(=O)O)NC(=O)[C@H](CC(C)C)NC(=O)[C@H](CC(C)C)NC(=O)C(C)(C)NC(=O)[C@H](CO)NC(=O)[C@H](Cc1c[nH]c2ccccc12)NC(=O)[C@H](CC(=O)O)NC(=O)[C@H](CO)NC(=O)[C@@H](NC(=O)[C@H](Cc1ccccc1)NC(=O)[C@@H](NC(=O)CNC(=O)[C@H](CCC(=O)O)NC(=O)C(C)(C)NC(=O)[C@@H](N)Cc1c[nH]cn1)[C@@H](C)O)[C@@H](C)O)C(=O)N[C@@H](CCC(N)=O)C(=O)N[C@@H](Cc1c[nH]c2ccccc12)C(=O)N[C@@H](CC(C)C)C(=O)N[C@H](C(N)=O)C(C)C [compound 192] (H-H[Aib]EGTFTSDWS[Aib]LLEGAALQRFIQWLV-NH2) | 29535 | 0.126 | 383 | 0.54 | 50.1 | – | – | – | – | – | –
2 | CC[C@H](C)[C@H](NC(=O)[C@H](Cc1ccccc1)NC(=O)[C@H](CCCNC(=N)N)NC(=O)[C@H](CCC(N)=O)NC(=O)[C@H](CC(C)C)NC(=O)[C@H](C)NC(=O)[C@H](C)NC(=O)CNC(=O)[C@H](CCC(=O)O)NC(=O)[C@H](CC(C)C)NC(=O)[C@H](CC(C)C)NC(=O)[C@H](Cc1c[nH]c2ccccc12)NC(=O)[C@H](CO)NC(=O)[C@H](Cc1ccc(O)cc1)NC(=O)[C@H](CC(=O)O)NC(=O)[C@H](CO)NC(=O)[C@@H](NC(=O)[C@H](Cc1ccccc1)NC(=O)[C@@H](NC(=O)CNC(=O)[C@H](CCC(=O)O)NC(=O)C(C)(C)NC(=O)[C@@H](N)Cc1c[nH]cn1)[C@@H](C)O)[C@@H](C)O)C(=O)N[C@@H](CCC(N)=O)C(=O)N[C@@H](Cc1c[nH]c2ccccc12)C(=O)N[C@@H](CC(C)C)C(=O)N[C@H](C(N)=O)C(C)C [compound 200] (H-H[Aib]EGTFTSDYSWLLEGAALQRFIQWLV-NH2) | 141730 | 0.02 | 353 | 0.92 | 7.94 | – | – | – | – | – | –
3 | CC(C)C[C@H](NC(=O)[C@H](Cc1ccccc1)NC(=O)[C@H](CCCNC(=N)N)NC(=O)[C@H](CCC(N)=O)NC(=O)[C@H](CC(C)C)NC(=O)C(C)(C)NC(=O)[C@H](C)NC(=O)[C@H](CCC(=O)O)NC(=O)[C@H](CCC(=O)O)NC(=O)[C@H](Cc1ccc(O)cc1)NC(=O)[C@H](CC(C)C)NC(=O)[C@H](Cc1ccc(O)cc1)NC(=O)[C@H](CO)NC(=O)[C@@H](NC(=O)[C@H](CC(=O)O)NC(=O)[C@H](CO)NC(=O)[C@@H](NC(=O)[C@H](Cc1ccccc1)NC(=O)[C@@H](NC(=O)CNC(=O)[C@H](CCC(=O)O)NC(=O)C(C)(C)NC(=O)[C@@H](N)Cc1c[nH]cn1)[C@@H](C)O)[C@@H](C)O)C(C)C)C(=O)N[C@@H](CCC(=O)O)C(=O)N[C@@H](CCCCNC(=O)COCCOCCNC(=O)COCCOCCNC(=O)CC[C@H](NC(=O)CCCCCCCCCCCCCCCCCCC(=O)O)C(=O)O)C(=O)N[C@@H](CC(C)C)C(=O)N[C@H](C(N)=O)C(C)C [compound 143] (H-H[Aib]EGTFTSDVSYLYEEA[Aib]LQRFLEK([AEEA-AEEA-γGlu-C20 diacid])LV-NH2) | 5733 | – | – | 0.08 | – | 0.01 | 88736 | 794 | – | – | –
4 | CC(C)C[C@H](NC(=O)[C@H](Cc1ccccc1)NC(=O)[C@H](CCCNC(=N)N)NC(=O)[C@H](CCC(N)=O)NC(=O)[C@H](CCC(N)=O)NC(=O)[C@H](C)NC(=O)[C@H](C)NC(=O)[C@@H](NC(=O)[C@H](CCC(=O)O)NC(=O)[C@H](CCCCNC(=O)COCCOCCNC(=O)COCCOCCNC(=O)CC[C@H](NC(=O)CCCCCCCCCCCCCCCCCCC(=O)O)C(=O)O)NC(=O)[C@H](CC(C)C)NC(=O)[C@H](CCCNC(=N)N)NC(=O)[C@H](CO)NC(=O)[C@@H](NC(=O)[C@H](CC(=O)O)NC(=O)[C@H](CO)NC(=O)[C@@H](NC(=O)[C@H](Cc1ccccc1)NC(=O)[C@@H](NC(=O)CNC(=O)[C@H](CCC(=O)O)NC(=O)C(C)(C)NC(=O)[C@@H](N)Cc1c[nH]cn1)[C@@H](C)O)[C@@H](C)O)C(C)C)[C@@H](C)O)C(=O)N[C@@H](CCC(=O)O)C(=O)N[C@@H](Cc1c[nH]cn1)C(=O)N[C@@H](CC(C)C)C(=O)N[C@H](C(N)=O)C(C)C [compound 21] (H-H[Aib]EGTFTSDVSRLK([AEEA-AEEA-γGlu-C20 diacid])ETAAQQRFLEHLV-NH2) | 193729 | – | – | 0.08 | – | – | – | – | 17906 | 0.0126 | 200
5 | CC[C@H](C)[C@H](NC(=O)[C@H](Cc1ccccc1)NC(=O)[C@H](CCCNC(=N)N)NC(=O)[C@H](CCC(N)=O)NC(=O)[C@H](CC(C)C)NC(=O)[C@H](C)NC(=O)[C@H](C)NC(=O)CNC(=O)[C@H](CCC(=O)O)NC(=O)[C@H](CC(C)C)NC(=O)[C@H](CC(C)C)NC(=O)CNC(=O)[C@H](CO)NC(=O)[C@@H](NC(=O)[C@H](CC(=O)O)NC(=O)[C@H](CO)NC(=O)[C@@H](NC(=O)[C@H](Cc1ccccc1)NC(=O)[C@@H](NC(=O)CNC(=O)[C@H](CCC(=O)O)NC(=O)C(C)(C)NC(=O)[C@@H](N)Cc1c[nH]cn1)[C@@H](C)O)[C@@H](C)O)C(C)C)C(=O)N[C@@H](CCC(N)=O)C(=O)N[C@@H](Cc1c[nH]c2ccccc12)C(=O)N[C@@H](CC(C)C)C(=O)N[C@H](C(N)=O)C(C)C [compound 182] (H-H[Aib]EGTFTSDVSGLLEGAALQRFIQWLV-NH2) | 253106 | – | – | 0.40 | – | 0.0501 | 2754 | 158 | – | – | –
6 | CC[C@H](C)[C@H](NC(=O)[C@H](Cc1ccccc1)NC(=O)[C@H](CCCNC(=N)N)NC(=O)[C@H](CCC(N)=O)NC(=O)[C@H](CC(C)C)NC(=O)[C@H](C)NC(=O)[C@H](C)NC(=O)CNC(=O)[C@H](CCC(=O)O)NC(=O)[C@H](CC(C)C)NC(=O)[C@H](CC(C)C)NC(=O)CNC(=O)[C@H](CO)NC(=O)[C@@H]1CCCN1C(=O)[C@H](CC(=O)O)NC(=O)[C@H](CO)NC(=O)[C@@H](NC(=O)[C@H](Cc1ccccc1)NC(=O)[C@@H](NC(=O)CNC(=O)[C@H](CCC(=O)O)NC(=O)C(C)(C)NC(=O)[C@@H](N)Cc1c[nH]cn1)[C@@H](C)O)[C@@H](C)O)C(=O)N[C@@H](CCC(N)=O)C(=O)N[C@@H](Cc1c[nH]c2ccccc12)C(=O)N[C@@H](CC(C)C)C(=O)N[C@H](C(N)=O)C(C)C [compound 123] (H-H[Aib]EGTFTSDPSGLLEGAALQRFIQWLV-NH2) | 3764 | – | – | 0.11 | – | 10 | 671 | 6310 | – | – | –
7 | CC(C)C[C@H](NC(=O)[C@H](Cc1ccccc1)NC(=O)[C@H](CCCNC(=N)N)NC(=O)[C@H](CCC(N)=O)NC(=O)[C@H](CO)NC(=O)[C@H](C)NC(=O)[C@H](C)NC(=O)[C@H](CCC(=O)O)NC(=O)[C@H](CCC(=O)O)NC(=O)[C@H](CCCCNC(=O)COCCOCCNC(=O)COCCOCCNC(=O)CC[C@H](NC(=O)CCCCCCCCCCCCCCCCCCC(=O)O)C(=O)O)NC(=O)[C@H](CC(C)C)NC(=O)[C@H](CCCNC(=N)N)NC(=O)[C@H](CO)NC(=O)[C@@H](NC(=O)[C@H](CC(=O)O)NC(=O)[C@H](CO)NC(=O)[C@@H](NC(=O)[C@H](Cc1ccccc1)NC(=O)[C@@H](NC(=O)CNC(=O)[C@H](CCC(=O)O)NC(=O)C(C)(C)NC(=O)[C@@H](N)Cc1c[nH]cn1)[C@@H](C)O)[C@@H](C)O)C(C)C)C(=O)N[C@@H](CCC(=O)O)C(=O)N[C@@H](Cc1c[nH]cn1)C(=O)N[C@@H](CC(C)C)C(=O)N[C@H](C(N)=O)C(C)C [compound 17] (H-H[Aib]EGTFTSDVSRLK([AEEA-AEEA-γGlu-C20 diacid])EEAASQRFLEHLV-NH2) | 10330 | – | – | 0.08 | – | – | – | – | 10637 | 0.0251 | 251
